Data published in PMC3317675 (International Journal of Molecular Sciences, 2012).

Key:
mGAT3 [1] = biological target: T1, mGAT3 (Mus musculus, UniProt P31650); assay: [3H]GABA uptake inhibition, stable CHO cells; assay type: cell-based; set-up: gene Slc6a11; RIKEN FANTOM cDNA in pcDNA3; no tag mentioned
T1 sequence (P31650 1-627): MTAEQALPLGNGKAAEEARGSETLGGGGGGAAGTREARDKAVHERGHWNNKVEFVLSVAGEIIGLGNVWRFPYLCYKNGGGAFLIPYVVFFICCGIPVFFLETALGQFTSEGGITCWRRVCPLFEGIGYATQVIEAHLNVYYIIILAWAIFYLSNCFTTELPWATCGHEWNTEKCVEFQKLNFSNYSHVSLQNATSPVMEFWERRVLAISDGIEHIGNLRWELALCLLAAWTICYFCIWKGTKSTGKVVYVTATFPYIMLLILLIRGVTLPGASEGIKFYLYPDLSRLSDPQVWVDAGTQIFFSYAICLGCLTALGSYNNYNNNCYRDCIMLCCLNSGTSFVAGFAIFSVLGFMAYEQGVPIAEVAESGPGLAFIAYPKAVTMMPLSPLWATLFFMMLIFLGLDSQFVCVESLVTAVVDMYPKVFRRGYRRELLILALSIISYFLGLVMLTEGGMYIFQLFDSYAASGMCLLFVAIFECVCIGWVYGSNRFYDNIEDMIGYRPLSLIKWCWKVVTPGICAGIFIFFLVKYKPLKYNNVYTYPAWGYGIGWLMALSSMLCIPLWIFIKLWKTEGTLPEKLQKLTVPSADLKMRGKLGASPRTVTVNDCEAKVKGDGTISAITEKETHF

mGAT1 [2] = biological target: T2, mGAT1 (Mus musculus, UniProt P31648); assay: [3H]GABA uptake inhibition, stable CHO cells; assay type: cell-based; set-up: gene Slc6a1; full-length ORF in pcDNA3; no tag mentioned
mGAT2 [3] = biological target: T3, mGAT2 (Mus musculus, UniProt P31649); assay: [3H]GABA uptake inhibition, stable CHO cells; assay type: cell-based; set-up: gene Slc6a13; RIKEN FANTOM cDNA in pcDNA3; no tag mentioned
T3 sequence (P31649 1-602): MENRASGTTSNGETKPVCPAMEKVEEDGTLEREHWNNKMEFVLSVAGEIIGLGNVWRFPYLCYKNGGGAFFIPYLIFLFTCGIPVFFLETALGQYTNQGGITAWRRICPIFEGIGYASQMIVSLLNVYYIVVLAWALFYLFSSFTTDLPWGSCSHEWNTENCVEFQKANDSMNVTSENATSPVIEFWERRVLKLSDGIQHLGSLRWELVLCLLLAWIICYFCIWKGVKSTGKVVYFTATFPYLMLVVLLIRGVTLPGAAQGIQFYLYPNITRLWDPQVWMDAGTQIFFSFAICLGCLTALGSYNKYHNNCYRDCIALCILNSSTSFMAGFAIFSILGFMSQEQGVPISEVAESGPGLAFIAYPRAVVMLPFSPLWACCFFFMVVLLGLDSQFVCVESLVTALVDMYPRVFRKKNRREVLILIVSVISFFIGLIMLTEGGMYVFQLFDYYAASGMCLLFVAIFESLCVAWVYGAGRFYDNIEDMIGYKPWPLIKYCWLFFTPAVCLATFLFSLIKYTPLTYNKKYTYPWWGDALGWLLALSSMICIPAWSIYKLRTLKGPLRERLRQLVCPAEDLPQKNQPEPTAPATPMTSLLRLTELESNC

mGAT1 [4] = biological target: T2, mGAT1; assay: cell-based; set-up: gene Slc6a1
Text: (§1) Those were designated CHO/mGAT1, CHO/mGAT2, CHO/mGAT3 and CHO/mBGT1. […] For uptake assays in cell lines stably expressing mouse GATs, CHO cells were transfected with cDNA using FuGENE6 transfection reagent according to the manufacturer’s directions, and subsequently cultured in the medium containing G418 to select positive clones.

mGAT3 [5] = biological target: T1, mGAT3; assay: cell-based; set-up: gene Slc6a11
Text: as §1

mGAT2 [6] = biological target: T3, mGAT2; assay: cell-based; set-up: gene Slc6a13
Text: as §1

rSERT = biological target: T4, rSERT (Rattus norvegicus, UniProt P31652); assay: [3H]5-HT uptake inhibition, stable CHO cells; assay type: cell-based
T4 construct: gene Slc6a4; previously cloned cDNA; no tag mentioned
T4 sequence (P31652 whole entry): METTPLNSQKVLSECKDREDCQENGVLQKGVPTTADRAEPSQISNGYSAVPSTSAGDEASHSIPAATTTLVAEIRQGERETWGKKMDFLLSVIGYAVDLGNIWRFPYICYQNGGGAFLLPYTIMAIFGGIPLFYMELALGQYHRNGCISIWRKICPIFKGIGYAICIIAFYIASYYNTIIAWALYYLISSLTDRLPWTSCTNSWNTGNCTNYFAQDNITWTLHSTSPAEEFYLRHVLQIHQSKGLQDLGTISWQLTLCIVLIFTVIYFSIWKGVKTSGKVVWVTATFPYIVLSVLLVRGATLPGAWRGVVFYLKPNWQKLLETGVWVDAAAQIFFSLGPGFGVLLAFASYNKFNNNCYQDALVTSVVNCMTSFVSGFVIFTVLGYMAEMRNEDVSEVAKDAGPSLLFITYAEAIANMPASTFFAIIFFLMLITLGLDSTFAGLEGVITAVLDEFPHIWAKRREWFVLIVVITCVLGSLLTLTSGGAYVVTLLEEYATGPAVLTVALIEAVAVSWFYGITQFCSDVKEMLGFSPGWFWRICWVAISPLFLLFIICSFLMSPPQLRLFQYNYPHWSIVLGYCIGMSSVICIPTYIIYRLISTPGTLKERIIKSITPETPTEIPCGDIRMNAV

| Structure (SMILES) | IC50 (mGAT3 [1]) | IC50 (mGAT1 [2]) | IC50 (mGAT2 [3]) | IC50 (mGAT1 [4]) | IC50 (mGAT3 [5]) | IC50 (mGAT2 [6]) | IC50 (rSERT) |
| --- | --- | --- | --- | --- | --- | --- | --- |
| C[N+](C)(C)CC(=O)O [Betaine] |  |  |  | > 10000 µM | > 10000 µM | > 10000 µM |  |
| CN(C)CCCN1c2ccccc2CCc2ccccc21 [Imipramine] | 108 µM | 223 ± 58.5 µM | 106 µM |  |  |  |  |
| CN(C)CCC=C1c2ccccc2CCc2ccccc21 [Amitriptyline] | 61.5 µM | 101 ± 11.7 µM | 45.8 µM |  |  |  |  |
| CNCCCN1c2ccccc2CCc2ccccc21 [Desipramine] | 80.3 µM | 268 ± 36.7 µM | 123 µM |  |  |  |  |

Now from value to compound:

| IC50 (mGAT3 [1]) | IC50 (mGAT1 [2]) | IC50 (mGAT2 [3]) | IC50 (mGAT1 [4]) | IC50 (mGAT3 [5]) | IC50 (mGAT2 [6]) | IC50 (rSERT) | Structure (SMILES) |
| --- | --- | --- | --- | --- | --- | --- | --- |
| 74.1 µM | 136 ± 21.9 µM | 87.1 µM |  |  |  |  | CNCCC=C1c2ccccc2CCc2ccccc21 [Nortriptyline] |
|  |  |  | > 300 µM | 18 µM | 25 µM |  | NCCC(=O)O [β-Alanine] |
| 64.6 µM | 181 ± 72.9 µM | 85.6 µM |  |  |  | 5.89 µM | CC(CN(C)C)CN1c2ccccc2CCc2ccccc21 (stereo not shown) [Trimipramine] |
| 113 µM | 167 ± 22.1 µM | 77.2 µM |  |  |  |  | CNCCCC1c2ccccc2C=Cc2ccccc21 [Protriptyline] |
